Test results from PubChem BioAssay (NCI).
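1) Cells in 96-well plates. 2) Compound, 48 h, 5 concentrations. 3) Linear interpolation between surrounding doses. 4) Unreached endpoint = highest concentration. TGI is the concentration that stops growth completely.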

Legend:
Assay in all cases: NCI tumour cell line growth inhibition, 48 h
CCRF-CEM leukemia = system: CCRF-CEM leukemia
HS 578T breast = system: HS 578T breast
HOP-62 NSCLC = system: HOP-62 NSCLC
PC-3 prostate = system: PC-3 prostate
T-47D breast = system: T-47D breast
TK-10 renal = system: TK-10 renal
OVCAR-8 ovarian = system: OVCAR-8 ovarian
OVCAR-5 ovarian = system: OVCAR-5 ovarian
RPMI-8226 leukemia = system: RPMI-8226 leukemia
SF-268 CNS = system: SF-268 CNS
NCI-H226 lung = system: NCI-H226 lung
SF-539 CNS = system: SF-539 CNS
OVCAR-3 ovarian = system: OVCAR-3 ovarian
DU-145 prostate = system: DU-145 prostate
NCI-H23 lung = system: NCI-H23 lung
K-562 leukemia = system: K-562 leukemia
RXF 393 renal = system: RXF 393 renal
SW-620 colon = system: SW-620 colon
SK-MEL-2 melanoma = system: SK-MEL-2 melanoma
U251 CNS = system: U251 CNS
ACHN renal = system: ACHN renal
M14 melanoma = system: M14 melanoma
SF-295 CNS = system: SF-295 CNS
EKVX NSCLC = system: EKVX NSCLC
HCT-116 colon = system: HCT-116 colon
LOX IMVI melanoma = system: LOX IMVI melanoma
A549 NSCLC = system: A549 NSCLC
HT29 colon = system: HT29 colon
OVCAR-4 ovarian = system: OVCAR-4 ovarian
HCT-15 colon = system: HCT-15 colon
SK-OV-3 ovarian = system: SK-OV-3 ovarian
MCF7 breast = system: MCF7 breast
786-0 renal = system: 786-0 renal
NCI/ADR-RES ovarian = system: NCI/ADR-RES ovarian
MDA-N = system: MDA-N
IGROV1 ovarian = system: IGROV1 ovarian
HOP-92 NSCLC = system: HOP-92 NSCLC
SNB-19 CNS = system: SNB-19 CNS
BT-549 breast = system: BT-549 breast
UACC-257 melanoma = system: UACC-257 melanoma
SNB-75 CNS = system: SNB-75 CNS
SN12C renal = system: SN12C renal
COLO 205 colon = system: COLO 205 colon
MDA-MB-231 breast = system: MDA-MB-231 breast
SR leukemia = system: SR leukemia
MALME-3M melanoma = system: MALME-3M melanoma
SK-MEL-28 melanoma = system: SK-MEL-28 melanoma
UACC-62 melanoma = system: UACC-62 melanoma
MOLT-4 leukemia = system: MOLT-4 leukemia
A498 renal = system: A498 renal
KM12 colon = system: KM12 colon
UO-31 renal = system: UO-31 renal
NCI-H460 lung = system: NCI-H460 lung
SK-MEL-5 melanoma = system: SK-MEL-5 melanoma
MDA-MB-435 = system: MDA-MB-435
CAKI-1 renal = system: CAKI-1 renal
HL-60(TB) leukemia = system: HL-60(TB) leukemia
HCC-2998 colon = system: HCC-2998 colon
NCI-H522 lung = system: NCI-H522 lung

O=C(N/S(=N/S(=O)(=O)c1ccc(Br)cc1)C(Cl)(Cl)Cl)c1ccccc1 (stereo unspecified)
TGI (CCRF-CEM leukemia): > 100 µM | TGI (HS 578T breast): > 100 µM | TGI (HOP-62 NSCLC): > 100 µM | TGI (PC-3 prostate): > 100 µM | TGI (T-47D breast): > 100 µM | TGI (TK-10 renal): > 100 µM | TGI (OVCAR-8 ovarian): > 100 µM | TGI (OVCAR-5 ovarian): > 100 µM | TGI (RPMI-8226 leukemia): > 100 µM | TGI (SF-268 CNS): > 100 µM | TGI (NCI-H226 lung): > 100 µM | TGI (SF-539 CNS): > 100 µM | TGI (OVCAR-3 ovarian): > 100 µM | TGI (DU-145 prostate): > 100 µM | TGI (NCI-H23 lung): > 100 µM | TGI (K-562 leukemia): > 100 µM | TGI (RXF 393 renal): > 100 µM | TGI (SW-620 colon): > 100 µM | TGI (SK-MEL-2 melanoma): > 100 µM | TGI (U251 CNS): > 100 µM | TGI (ACHN renal): > 100 µM | TGI (M14 melanoma): > 100 µM | TGI (SF-295 CNS): > 100 µM | TGI (EKVX NSCLC): > 100 µM | TGI (HCT-116 colon): > 100 µM | TGI (LOX IMVI melanoma): > 100 µM | TGI (A549 NSCLC): > 100 µM | TGI (HT29 colon): > 100 µM | TGI (OVCAR-4 ovarian): > 100 µM | TGI (HCT-15 colon): > 100 µM | TGI (SK-OV-3 ovarian): > 100 µM | TGI (MCF7 breast): > 100 µM | TGI (786-0 renal): > 100 µM | TGI (NCI/ADR-RES ovarian): > 100 µM | TGI (MDA-N): > 100 µM | TGI (IGROV1 ovarian): > 100 µM | TGI (HOP-92 NSCLC): 82 µM | TGI (SNB-19 CNS): > 100 µM | TGI (BT-549 breast): > 100 µM | TGI (UACC-257 melanoma): > 100 µM | TGI (SNB-75 CNS): > 100 µM | TGI (SN12C renal): > 100 µM | TGI (COLO 205 colon): > 100 µM | TGI (MDA-MB-231 breast): > 100 µM | TGI (SR leukemia): > 100 µM | TGI (MALME-3M melanoma): > 100 µM | TGI (SK-MEL-28 melanoma): > 100 µM | TGI (UACC-62 melanoma): > 100 µM | TGI (MOLT-4 leukemia): > 100 µM | TGI (A498 renal): > 100 µM | TGI (KM12 colon): > 100 µM | TGI (UO-31 renal): > 100 µM | TGI (NCI-H460 lung): > 100 µM | TGI (SK-MEL-5 melanoma): > 100 µM | TGI (MDA-MB-435): > 100 µM

CN(C)C=Nc1ccc2[nH]c3ccccc3c2c1
TGI (CCRF-CEM leukemia): > 100 µM | TGI (HS 578T breast): > 100 µM | TGI (HOP-62 NSCLC): 57.7 µM | TGI (PC-3 prostate): > 100 µM | TGI (T-47D breast): 97.7 µM | TGI (TK-10 renal): 86.2 µM | TGI (OVCAR-8 ovarian): > 100 µM | TGI (OVCAR-5 ovarian): 96.5 µM | TGI (RPMI-8226 leukemia): 60.4 µM | TGI (SF-268 CNS): > 100 µM | TGI (NCI-H226 lung): 84 µM | TGI (SF-539 CNS): 50.5 µM | TGI (OVCAR-3 ovarian): > 100 µM | TGI (CAKI-1 renal): > 100 µM | TGI (DU-145 prostate): > 100 µM | TGI (NCI-H23 lung): > 100 µM | TGI (K-562 leukemia): 43.4 µM | TGI (RXF 393 renal): 79 µM | TGI (SK-MEL-2 melanoma): 35.3 µM | TGI (U251 CNS): 68.6 µM | TGI (ACHN renal): > 100 µM | TGI (M14 melanoma): 29.1 µM | TGI (SF-295 CNS): > 100 µM | TGI (EKVX NSCLC): > 100 µM | TGI (HCT-116 colon): > 100 µM | TGI (LOX IMVI melanoma): 34.2 µM | TGI (A549 NSCLC): > 100 µM | TGI (HT29 colon): 43.8 µM | TGI (OVCAR-4 ovarian): > 100 µM | TGI (HCT-15 colon): 46.5 µM | TGI (HL-60(TB) leukemia): 41.7 µM | TGI (SK-OV-3 ovarian): > 100 µM | TGI (MCF7 breast): > 100 µM | TGI (786-0 renal): 70 µM | TGI (NCI/ADR-RES ovarian): > 100 µM | TGI (MDA-N): 33 µM | TGI (IGROV1 ovarian): > 100 µM | TGI (HOP-92 NSCLC): 39 µM | TGI (SNB-19 CNS): > 100 µM | TGI (BT-549 breast): > 100 µM | TGI (UACC-257 melanoma): 30.3 µM | TGI (SNB-75 CNS): > 100 µM | TGI (SN12C renal): > 100 µM | TGI (COLO 205 colon): 30.2 µM | TGI (MDA-MB-231 breast): 43.1 µM | TGI (SR leukemia): 41 µM | TGI (MALME-3M melanoma): 54.7 µM | TGI (SK-MEL-28 melanoma): 40 µM | TGI (UACC-62 melanoma): 40.6 µM | TGI (MOLT-4 leukemia): 83.3 µM | TGI (A498 renal): 60.1 µM | TGI (UO-31 renal): 88.1 µM | TGI (SK-MEL-5 melanoma): 30.4 µM | TGI (MDA-MB-435): 33.9 µM

COc1ccc(NC(=S)N/N=C/c2cccc(C)n2)cc1
TGI (CCRF-CEM leukemia): > 54 µM | TGI (HS 578T breast): > 100 µM | TGI (HOP-62 NSCLC): 38.4 µM | TGI (HCC-2998 colon): > 100 µM | TGI (PC-3 prostate): > 100 µM | TGI (T-47D breast): > 100 µM | TGI (TK-10 renal): > 100 µM | TGI (OVCAR-8 ovarian): > 35.4 µM | TGI (OVCAR-5 ovarian): > 100 µM | TGI (RPMI-8226 leukemia): 62.1 µM | TGI (SF-268 CNS): > 66.9 µM | TGI (NCI-H522 lung): 5.73 µM | TGI (NCI-H226 lung): 53.8 µM | TGI (SF-539 CNS): 34.2 µM | TGI (OVCAR-3 ovarian): > 100 µM | TGI (CAKI-1 renal): > 79 µM | TGI (DU-145 prostate): > 67.1 µM | TGI (NCI-H23 lung): > 100 µM | TGI (K-562 leukemia): > 100 µM | TGI (SW-620 colon): > 100 µM | TGI (SK-MEL-2 melanoma): > 100 µM | TGI (U251 CNS): 24.6 µM | TGI (ACHN renal): 19.5 µM | TGI (M14 melanoma): 11.2 µM | TGI (SF-295 CNS): 40.3 µM | TGI (EKVX NSCLC): > 100 µM | TGI (HCT-116 colon): > 100 µM | TGI (LOX IMVI melanoma): 33.2 µM | TGI (A549 NSCLC): > 100 µM | TGI (HT29 colon): 14.9 µM | TGI (OVCAR-4 ovarian): > 100 µM | TGI (HCT-15 colon): > 100 µM | TGI (HL-60(TB) leukemia): 6.06 µM | TGI (SK-OV-3 ovarian): 46.2 µM | TGI (MCF7 breast): > 100 µM | TGI (786-0 renal): > 65 µM | TGI (NCI/ADR-RES ovarian): > 26.6 µM | TGI (MDA-N): > 100 µM | TGI (IGROV1 ovarian): 24.1 µM | TGI (HOP-92 NSCLC): > 85.5 µM | TGI (SNB-19 CNS): > 100 µM | TGI (BT-549 breast): > 71 µM | TGI (SNB-75 CNS): 81.8 µM | TGI (SN12C renal): > 100 µM | TGI (COLO 205 colon): > 39.6 µM | TGI (MDA-MB-231 breast): > 100 µM | TGI (SR leukemia): > 37.5 µM | TGI (MALME-3M melanoma): > 100 µM | TGI (SK-MEL-28 melanoma): > 100 µM | TGI (UACC-62 melanoma): 10.7 µM | TGI (MOLT-4 leukemia): > 29.3 µM | TGI (A498 renal): 90 µM | TGI (KM12 colon): > 100 µM | TGI (UO-31 renal): 18 µM | TGI (NCI-H460 lung): > 42.9 µM | TGI (SK-MEL-5 melanoma): > 36.5 µM | TGI (MDA-MB-435): > 100 µM
